The results in this text go back to patent US7763644B2, “Imidazole derivatives, processes for preparing them and their uses” (UCB Pharma, S.A., priority 2003, dated 2010).

pKi: −log10 of the molar value. “Also recorded” adds a separate entry of the source.

As a reminder, the pKi is −log10 of the Ki, conventionally taken in molar units.

Test [1] deals with T1, LBS (Rattus norvegicus, UniProt Q02563).
T1 construct: from tissue; host or cells: rat brain (crude membranes)
Put plainly: Competition binding curves against [^3H]-compound 7, rat brain membranes. As to the method: FIGS. 2a and 2b depict competition binding curves showing that compound 7 binds to LBS with about 30 fold higher affinity than levetiracetam. […] (M). Test drugs are levetiracetam (2a) and compound 7 (2b).
Binding experiments were conducted on crude rat brain membranes at 4° C. as described in Noyer M. et al. (Euro. J. Pharmacol. (1995), 286, 137-146). Incubation time for equilibrium studies was 120 min. […] The Bmax being similar to the value estimated using [^3H]-L059 as radioligand in similar membrane preparations (5 pmol/mg protein).

Test [2] deals with T2, hSV2C (Homo sapiens, UniProt Q496J9).
T2 construct: expressed in transfected cells; host or cells: COS-7 (transient transfection)
T2 sequence (Q496J9 1-727): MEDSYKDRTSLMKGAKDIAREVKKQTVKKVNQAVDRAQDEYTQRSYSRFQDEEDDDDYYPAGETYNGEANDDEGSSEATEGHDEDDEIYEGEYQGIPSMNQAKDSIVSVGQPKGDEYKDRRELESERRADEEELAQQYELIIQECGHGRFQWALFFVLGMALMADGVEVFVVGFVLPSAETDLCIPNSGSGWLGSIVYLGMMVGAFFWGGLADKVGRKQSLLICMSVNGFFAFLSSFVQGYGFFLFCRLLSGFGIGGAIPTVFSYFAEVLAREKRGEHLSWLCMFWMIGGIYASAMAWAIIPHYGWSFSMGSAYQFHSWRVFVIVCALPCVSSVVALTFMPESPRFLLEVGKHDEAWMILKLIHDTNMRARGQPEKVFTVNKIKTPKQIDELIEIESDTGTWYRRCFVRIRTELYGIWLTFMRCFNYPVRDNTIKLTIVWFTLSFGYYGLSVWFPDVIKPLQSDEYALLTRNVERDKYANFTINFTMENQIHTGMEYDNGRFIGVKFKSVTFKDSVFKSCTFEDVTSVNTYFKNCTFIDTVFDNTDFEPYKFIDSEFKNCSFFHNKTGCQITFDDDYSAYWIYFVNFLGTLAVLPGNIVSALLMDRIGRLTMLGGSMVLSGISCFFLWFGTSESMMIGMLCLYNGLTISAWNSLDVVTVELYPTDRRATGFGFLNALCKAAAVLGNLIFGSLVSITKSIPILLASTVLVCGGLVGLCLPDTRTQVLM
The experiment in a line: IC50 of unlabelled ligands against SV2C, [^3H]-compound 7 as probe. Conditions: [^3H]-compound 7 as labeled probe, FIG. 6. In kind it is binding. The text has this: (M). Depicted are the IC50 curves of compound 7 binding to hSV2A (x) and hSV2C (□), and compound Z binding to hSV2A (▪) and hSV2C (⋄).
(§1) This confirms that labeled-compound Z has poor affinity for utilizing as a probe against SV2C, and that labeled-compound 7 is a preferred probe to utilize in screening against SV2C.

For test [3], the target named is T2, hSV2C. Put plainly: Radioligand binding to COS-7 cells transfected with SV2C. Conditions: displaced by excess levetiracetam, FIG. 5.
Text: as §1

Test [4] concerns the target human SV2A (Homo sapiens, UniProt Q7L0J3). The experiment in a line: Radioligand binding to SV2A under standard conditions.
Text: as §1

Test [5] has as its target T3, LBS/SV2A (Rattus norvegicus, UniProt Q02563).
T3 construct: from tissue; host or cells: rat brain (crude membranes)
Put plainly: Photolabelling of LBS in rat brain membranes, SDS-PAGE. In kind it is binding. Conditions: UV irradiated rat brain membranes, gel slicing. The text has this:
Y-axis represents the radioactivity (DPM) in gel slices and X-axis represents the gel slice number. Each number and arrow in the graph represents the position and the size in kilodaltons of molecular weight standards.
This example provides a photoactivable ligand for labelling SV2A/LBS and its detection in biological samples. This ligand was designed to cross-link to the LBS/SV2A with an azidophenyl motif capable of forming a covalent complex with the protein upon UV light irradiation.

The test system of test [6] is untransfected cells. The experiment in a line: Radioligand binding to untransfected COS-7 cells. Particulars: FIG. 5, bars 2.

T1 sequence (Q02563 whole entry): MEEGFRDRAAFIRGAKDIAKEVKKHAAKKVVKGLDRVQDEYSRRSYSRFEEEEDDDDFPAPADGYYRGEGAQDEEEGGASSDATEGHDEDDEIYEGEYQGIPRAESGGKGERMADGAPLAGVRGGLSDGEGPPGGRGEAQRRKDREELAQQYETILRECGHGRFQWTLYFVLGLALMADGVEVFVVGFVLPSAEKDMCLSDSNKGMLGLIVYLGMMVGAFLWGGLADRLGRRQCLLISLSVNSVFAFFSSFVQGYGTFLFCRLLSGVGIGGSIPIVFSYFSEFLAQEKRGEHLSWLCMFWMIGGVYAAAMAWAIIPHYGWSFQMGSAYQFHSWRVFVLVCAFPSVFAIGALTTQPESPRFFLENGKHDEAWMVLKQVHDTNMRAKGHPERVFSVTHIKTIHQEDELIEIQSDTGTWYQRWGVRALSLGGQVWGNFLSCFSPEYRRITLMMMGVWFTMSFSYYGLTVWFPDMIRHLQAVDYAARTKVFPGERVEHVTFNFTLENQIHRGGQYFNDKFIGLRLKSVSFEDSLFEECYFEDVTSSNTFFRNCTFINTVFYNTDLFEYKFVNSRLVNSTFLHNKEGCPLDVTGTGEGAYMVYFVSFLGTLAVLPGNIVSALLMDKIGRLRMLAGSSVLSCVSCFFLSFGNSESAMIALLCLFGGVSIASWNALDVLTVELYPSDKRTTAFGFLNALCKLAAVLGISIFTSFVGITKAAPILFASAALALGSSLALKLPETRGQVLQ
human SV2A, sequence (Q7L0J3 whole entry): as the sequence (Q02563 whole entry) above, with E53D, A62S, A71T, D144E, T154A, S440G, A482S, V572I, L634M counted along it
T3 sequence (Q02563 whole entry): as the sequence (Q02563 whole entry) above

In the case of `[N-]=[N+]=Nc1c(F)ccc(C2CC(=O)N(Cn3ccnc3)C2)c1F` (single isomer, unassigned; (+)) [compound 7, (+)-4-(3-azido-2,4-difluorophenyl)-1-(1H-imidazol-1-ylmethyl)pyrrolidin-2-one], the “fold higher affinity for LBS than levetiracetam (L059)” value in test [1] (FIG. 2) was “about 30 fold”. The molecule also had a pKi in test [1] (rat brain membranes) of 7.50. In addition, the “affinity to SV2C compared with SV2A (IC50 curves)” value in test [2] is on record as “equivalent affinities”.
On to `CC[C@@H](C(N)=O)N1CC(c2cccc(N=[N+]=[N-])c2)CC1=O` (stereo partly drawn) [[^3H]-compound Z, reference compound], for which, in test [3], the “binding of radioligand to SV2C expressed in COS-7 cells” value is reported as “absence of specific binding; also recorded: lack of binding”. In addition, the “binding of radioligand to SV2A” value in test [4] was “binds well”.
Take `CC[C@@H](C(N)=O)N1CC(c2cccc(N=[N+]=[N-])c2)CC1=O` (stereo partly drawn) [compound Z, (2S)-2-[4-(3-azidophenyl)-2-oxopyrrolidin-1-yl]butanamide]: the “affinity to SV2C compared with SV2A (IC50 curves)” value in test [2] is recorded as “different affinities; also recorded: much weaker affinity”.
As to “[^3H]-(+)-4-(3-azido-2,4-difluorophenyl)-1-(1H-imidazol-1-ylmethyl)pyrrolidin-2-one [[^3H]-compound 7]”, the “size of the protein the radiolabel incorporates into” value in test [5] came out at 90 kDa. Further, in test [3], the “binding of radioligand to SV2C expressed in COS-7 cells” value is “specific binding; also recorded: binds well”. The “specific binding of radioligand in untransfected cells” value in test [6] was “no specific binding”.
